Usually EC50 stands for the concentration giving half of the maximal effect. A high value points to a need for much substance.

Molecules are shown by their SMILES.

This is an account of results in US20080287477A1, “Novel Compounds as Modulators of Ppar” (KALYPSYS, INC., priority 2006, published 2008).

Format in all cases: cell-based, murine and human
Holding throughout (settings): 20-24 hours treatment

In one experiment the target is T1, PPAR-delta (UniProt Q03181).
T1 sequence (Q03181 1-441): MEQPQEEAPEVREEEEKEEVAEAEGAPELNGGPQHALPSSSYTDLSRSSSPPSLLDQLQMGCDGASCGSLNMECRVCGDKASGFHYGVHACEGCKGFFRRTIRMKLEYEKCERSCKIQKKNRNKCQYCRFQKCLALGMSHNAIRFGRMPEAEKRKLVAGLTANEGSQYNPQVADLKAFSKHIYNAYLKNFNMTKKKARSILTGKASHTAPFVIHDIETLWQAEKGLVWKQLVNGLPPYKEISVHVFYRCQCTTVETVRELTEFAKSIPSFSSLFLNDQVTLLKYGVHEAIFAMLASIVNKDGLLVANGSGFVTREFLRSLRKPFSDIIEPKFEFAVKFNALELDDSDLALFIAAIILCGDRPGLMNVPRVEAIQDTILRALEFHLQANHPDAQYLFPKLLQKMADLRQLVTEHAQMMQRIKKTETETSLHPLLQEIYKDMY
The experiment is described as follows: Transient transfection transactivation assay in CV-1 cells, GAL4-PPAR-delta chimera, luciferase reporter. The text has this: (§1) Compounds may be screened for functional potency in transient transfection assays in CV-1 cells for their ability to activate the PPAR subtypes (transactivation assay). A previously established chimeric receptor system was utilized to allow comparison of the relative transcriptional activity of the receptor subtypes on the same synthetic response element and to prevent endogenous receptor activation from complicating the interpretation of results. See, for example, Lehmann, J. M.; Moore, L. B.; Smith-Oliver, T. A: Wilkinson, W. O.; Willson, T. M.; Kliewer, S. A., An antidiabetic thiazolidinedione is a high affinity ligand for peroxisome proliferator-activated receptor […], J. Biol. Chem., 1995, 270, 12953-6. The ligand binding domains for murine and human PPAR-alpha, PPAR-gamma, and PPAR-delta are each fused to the yeast transcription factor GAL4 DNA binding domain. CV-1 cells were transiently transfected with expression vectors for the respective PPAR chimera along with a reporter construct containing four or five copies of the GAL4 DNA binding site driving expression of luciferase. After 8-16 h, the cells are replated into multi-well assay plates and the media is exchanged to phenol-red free DME medium supplemented with 5% delipidated coif serum. 4 hours after replating, cells were treated with either compounds or 1% DMSO for 20-24 hours. Luciferase activity was then assayed with Britelite (Perkin Elmer) following the manufacturer's protocol and measured with either the Perkin Elmer Viewlux or Molecular Devices Acquost (see, for example. Kliewer, S. A., et. al. Cell 1995, 83, 813-819). Rosiglitazone is used as a positive control in the PPARγ assay. Wy-14643 and GW7647 is used as a positive control in the […]. GW50156 is used as the positive control in the PPARδ assay.
(§2) EC50 values are set forth below in Table 1.
For orientation: A reporter such as luciferase makes a cellular process visible.

For another experiment, the target named is T2, PPAR-alpha (UniProt Q07869).
T2 sequence (Q07869 1-468): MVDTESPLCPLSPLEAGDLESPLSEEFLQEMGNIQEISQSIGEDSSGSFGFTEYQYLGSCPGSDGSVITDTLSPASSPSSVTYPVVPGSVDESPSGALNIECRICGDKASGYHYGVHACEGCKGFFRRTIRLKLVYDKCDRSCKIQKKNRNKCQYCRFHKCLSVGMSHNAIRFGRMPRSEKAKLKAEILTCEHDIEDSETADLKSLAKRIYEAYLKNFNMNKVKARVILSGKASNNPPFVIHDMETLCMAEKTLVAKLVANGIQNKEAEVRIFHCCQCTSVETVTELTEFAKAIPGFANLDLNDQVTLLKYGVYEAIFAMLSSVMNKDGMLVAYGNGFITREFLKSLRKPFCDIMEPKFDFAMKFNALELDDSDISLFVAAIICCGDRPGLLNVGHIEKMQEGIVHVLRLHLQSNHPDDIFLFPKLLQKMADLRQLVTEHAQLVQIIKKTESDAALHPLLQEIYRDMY
The experiment is described as follows: Transient transfection transactivation assay in CV-1 cells, GAL4-PPAR-alpha chimera, luciferase reporter.
From the text: as §1
Examples 1-20 were assayed to measure their biological activity with respect to their efficacy for modulating PPAR-alpha, PPAR-gamma, and PPAR-delta. EC50 values are set forth below in Table 1.

The target of another experiment is T3, PPAR-gamma (UniProt P37231).
T3 sequence (P37231 1-505): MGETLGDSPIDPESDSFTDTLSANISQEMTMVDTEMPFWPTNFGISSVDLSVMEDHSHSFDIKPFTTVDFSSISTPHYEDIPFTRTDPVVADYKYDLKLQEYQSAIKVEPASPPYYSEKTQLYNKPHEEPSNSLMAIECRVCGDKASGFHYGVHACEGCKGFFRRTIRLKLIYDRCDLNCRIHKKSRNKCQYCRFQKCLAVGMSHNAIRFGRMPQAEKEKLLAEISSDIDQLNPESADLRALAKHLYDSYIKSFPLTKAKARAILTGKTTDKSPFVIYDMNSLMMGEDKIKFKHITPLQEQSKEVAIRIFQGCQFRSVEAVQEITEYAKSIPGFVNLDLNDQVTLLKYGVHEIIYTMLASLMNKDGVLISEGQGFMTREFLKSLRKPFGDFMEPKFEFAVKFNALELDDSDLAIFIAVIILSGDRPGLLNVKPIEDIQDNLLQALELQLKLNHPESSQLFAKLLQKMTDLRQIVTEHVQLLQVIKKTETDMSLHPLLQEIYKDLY
The experiment is described as follows: Transient transfection transactivation assay in CV-1 cells, GAL4-PPAR-gamma chimera, luciferase reporter.
From the text: as §1, §2

On to `CCc1cnc(N(CCNS(=O)(=O)c2cccc3c2CC(C(=O)O)C3)Cc2ccc(OC(F)(F)F)cc2)nc1` (stereo not drawn) [Example 1, 4-{2-[(5-Ethyl-pyrimidin-2-yl)-(4-trifluoromethoxy-benzyl}-amino]-ethylsulfamoyl)-indan-2-carboxylic acid], for which the 50% effective concentration (EC50) at PPAR-delta, at PPAR-alpha and at PPAR-gamma was less than 5 µM each time.
On to `CCc1cnc(N(CCNS(=O)(=O)c2cc(C)cc(CC(=O)O)c2)Cc2ccc(OC(F)(F)F)cc2)nc1` [Example 2, (3-{2-[(Ethyl-pyrimidin-2-yl)-(4-trifluoromethoxy-benzyl)-amino]-ethylsulfamoyl)-5-methyl-phenyl)-acetic acid], for which the 50% effective concentration (EC50) at PPAR-delta, at PPAR-alpha and on PPAR-gamma was less than 5 µM throughout.
As to `CCCCCN(CCNS(=O)(=O)c1cccc2c1CC(C(=O)O)C2)Cc1ccc(OC(F)(F)F)cc1` (stereo not drawn) [Example 3, 4-{2-[Pentyl-(4-trifluoromethoxy-benzyl)-amino]-ethylsulfamoyl}-indan-2-carboxylic acid], the concentration giving a half-maximal response (EC50) on PPAR-delta, at PPAR-alpha and on PPAR-gamma was less than 5 µM each time.
For `CCCCCN(CCNS(=O)(=O)c1cc(C)cc(CC(=O)O)c1)Cc1ccc(OC(F)(F)F)cc1` [Example 4], the EC50 at PPAR-delta, at PPAR-alpha and at PPAR-gamma was less than 5 µM each time.
Consider `CCN(CCNS(=O)(=O)c1cc(C)cc(CC(=O)O)c1)Cc1ccc(OC(F)(F)F)cc1` [Example 5, (3-{2-[Ethyl-(4-trifluoromethoxy-benzyl}-amino]-ethylsulfamoyl)-5-methyl-phenyl)-acetic acid], for which the EC50 was less than 5 µM at PPAR-delta, 5 to 100 µM on PPAR-alpha and less than 5 µM on PPAR-gamma.
For `CCCCN(CCNS(=O)(=O)c1cc(C)cc(CC(=O)O)c1)Cc1ccc(OC(F)(F)F)cc1` [Example 6, (3-{2-[Butyl-(4-trifluoromethoxy-benzyl)-amino]-ethylsulfamoyl}-5-methyl-phenyl)-acetic acid], the EC50 on PPAR-delta, at PPAR-alpha and at PPAR-gamma was less than 5 µM throughout.
For `CCCCN(CCNS(=O)(=O)c1cccc2c1CC(C(=O)O)C2)Cc1ccc(OC(F)(F)F)cc1` (stereo not drawn) [Example 7, 4-{2-[Butyl-(4-trifluoromethoxy-benzyl)-amino]-ethylsulfamoyl}-indan-2-carboxylic acid], the EC50 at PPAR-delta, at PPAR-alpha and at PPAR-gamma was less than 5 µM throughout.
On to `CCN(CCNS(=O)(=O)c1cccc2c1CC(C(=O)O)C2)Cc1ccc(OC(F)(F)F)cc1` (stereo not drawn) [Example 8], for which the EC50 at PPAR-delta, on PPAR-alpha and at PPAR-gamma was less than 5 µM in each case.
For `CCCc1c(OCCN(C)S(=O)(=O)c2cccc3c2CC(C(=O)O)C3)ccc(C(C)=O)c1O` (stereo not drawn) [Example 9, 4-(N-(2-(4-Acetyl-3-hydroxy-2-propylphenoxy)ethyl)-N-methylsulfamoyl)-2,3-dihydro-1H-indene-2-carboxylic acid], the EC50 on PPAR-delta is less than 5 µM; on PPAR-alpha it was greater than 100 µM; on PPAR-gamma it was less than 5 µM.
Turning to `CCCc1c(OCCN(C)S(=O)(=O)c2ccc3c(c2)C(C(=O)O)CC3)ccc(C(C)=O)c1O` (stereo not drawn) [Example 10, 6-(N-(2-(4-Acetyl-3-hydroxy-2-propylphenoxy)ethyl)-N-methylsulfamoyl)-2-dihydro-1H-indene-1-carboxylic acid], the EC50 at PPAR-delta, at PPAR-alpha and at PPAR-gamma was less than 5 µM in each case.
As for `CCCc1c(OCCNS(=O)(=O)c2cccc3c2CC(C(=O)O)C3)ccc(C(C)=O)c1O` (stereo not drawn) [Example 11, 4-(N-(2-(4-Acetyl-3-hydroxy-2-propylphenoxy)ethyl)sulfamoyl)-2,3-dihydro-1H-indene-2-carboxylic acid], the values for the EC50 on PPAR-delta, on PPAR-alpha and on PPAR-gamma were less than 5 µM, greater than 100 µM and less than 5 µM, respectively.
As to `CCCc1c(OCCNS(=O)(=O)c2ccc3c(c2)CC(C(=O)O)C3)ccc(C(C)=O)c1O` (stereo not drawn) [Example 12, 5-(N-(2-(4-Acetyl-3-hydroxy-2-propylphenoxy)ethyl)sulfamoyl)-2,3-dihydro-1H-indene-2-carboxylic acid], the EC50 on PPAR-delta, at PPAR-alpha and on PPAR-gamma was 5 to 100 µM throughout.
Consider `CCCc1c(OCCN(C)S(=O)(=O)c2ccc3c(c2)CC(C(=O)O)C3)ccc(C(C)=O)c1O` (stereo not drawn) [Example 13], for which the EC50 at PPAR-delta was greater than 100 µM; on PPAR-alpha it was greater than 100 µM; at PPAR-gamma, 5 to 100 µM.
For `CCCc1c(OCCN(C)S(=O)(=O)c2cccc3c2CC(C(=O)O)C3)ccc2c(C(F)(F)F)noc12` (stereo not drawn) [Example 14, 4-(N-methyl-N-(2-(7-propyl-3-(trifluoromethyl)benzo[d]isoxazol-6-yloxy)ethyl)sulfamoyl)-2,3-dihydro-1H-indene-2-carboxylic acid], the EC50 on PPAR-delta, at PPAR-alpha and on PPAR-gamma was less than 5 µM throughout.
`Cc1ccc(C(=NOCCN(C)S(=O)(=O)c2cccc3c2CC(C(=O)O)C3)c2ccc(C)cc2)cc1` (stereo not drawn) [Example 15, 4-(N-(2-(di-p-tolylmethyleneaminooxy)ethyl)-N-methylsulfamoyl)-2,3-dihydro-1H-indene-2-carboxylic acid]: the 50% effective concentration (EC50) at PPAR-delta is less than 5 µM; on PPAR-alpha, greater than 100 µM; on PPAR-gamma it was greater than 100 µM.
With `Cc1ccc(S(=O)(=O)N(C)CCON=C(c2ccc(C(F)(F)F)cc2)c2ccc(C(F)(F)F)cc2)cc1CC(=O)O` [Example 16], the EC50 on PPAR-delta, at PPAR-alpha and on PPAR-gamma was less than 5 µM in each case.
Consider `CN(CCON=C(c1ccc(C(F)(F)F)cc1)c1ccc(C(F)(F)F)cc1)S(=O)(=O)c1cccc2c1CC(C(=O)O)C2` (stereo not drawn) [Example 18, 4-(N-(2-(bis(4-(trifluoromethyl)phenyl)methyleneaminooxy)ethyl)-N-methylsulfamoyl)-2,3-dihydro-1H-indene-2-carboxylic acid], for which the half-maximal effective concentration (EC50) is less than 5 µM at PPAR-delta, greater than 100 µM on PPAR-alpha and less than 5 µM at PPAR-gamma.
On to `CN(CCON=C(c1ccc(OC(F)(F)F)cc1)c1ccc(OC(F)(F)F)cc1)S(=O)(=O)c1cccc2c1CC(C(=O)O)C2` (stereo not drawn) [Example 19, 4-(N-(2-(bis(4-(trifluoromethoxy)phenyl)methyleneaminooxy)ethyl)-N-methylsulfamoyl)-2,3-dihydro-1H-indene-2-carboxylic acid], for which the results for the EC50 on PPAR-delta, on PPAR-alpha and on PPAR-gamma were less than 5 µM, greater than 100 µM and less than 5 µM, respectively.
As for `Cc1ccc(C(=NOCCN(C)S(=O)(=O)c2ccc(C)c(CC(=O)O)c2)c2ccc(C)cc2)cc1` [Example 20], the half-maximal effective concentration (EC50) on PPAR-delta, at PPAR-alpha and on PPAR-gamma was less than 5 µM in each case.
